Measured values taken from patent US20190300882A1, “METHODS OF TREATING NEUROBLASTOMA AND REAGENTS THEREFOR” (GARVAN INSTITUTE OF MEDICAL RESEARCH, priority 2016, published 2019).

Experiments:
Format in all cases: cell-based
[1] = test system: SHEP cells; assay: Primary functional miRNA mimic screen, CellTiter-Glo cell viability; conditions: miRNA mimic 25 nM alone, 144 hours post-transfection
Description: Breast cancer cell lines (MDA-MB-231, MDA-MB-468, SK-BR-3; BT474) and prostate cancer cell lines (PC3, DU145) were obtained from American Type Culture Collection (ATCC). Neuroblastoma cell lines (KELLY, SHEP) were received from Children's Cancer Institute (CCIA). The KELLY cells were selected as a MYCN amplified neuroblastoma cell line and the SHEP cells were selected as a MYCN wild-type neuroblastoma cell line.
All breast and prostate cancer cell lines were cultivated in RPMI media supplemented with 10% FCS, HEPES, and insulin. The neuroblastoma cell lines, KELLY, SHEP, were grown in 10% FCS/RPMI and 10% FCS/DMEM, respectively.
(§1) Each of the cell lines were reverse transfected in 384-well plate format with 25 nM of a miRNA from the Dharmacon miRNA mimic or inhibitor libraries (version 16.0) using liquid-handling robot Calliper Sciclone ALH3000 according to the conditions described in Table 3. After 24 hours, media was changed using BioTek 406, and 144 hours post-transfection, cell viability was determined using CellTiter-Glo luminescent assay (Promega) at 1:2 dilution. Luminescence measurements were taken on the Synergy H4 high-throughput multimode microplate reader. All screens were performed in duplicates.
Raw viability was normalised to a nontargeting control (OTP) or mock wells, and death genes or controls inducing varying levels of death were used to monitor transfection efficiency and to define dynamic range in each screen (FIG. 1). To define screen hits, normalised viability scores were binned in the following manner: CV1 bin included candidates with viability >=0.8; CV2 bin included candidates with viability <0.8 and >0.5, and LC bin was assigned to candidates with normalised viability <=0.5. Only LC candidates were defined as screen hits.

[2] = test system: SK-N-DZ MYCN-amplified neuroblastoma cell line; assay: Secondary validation screen of lethal miRNAs, additional cell line, cell viability; conditions: miRNA mimic alone
Protocol: as §1
(§2) The secondary validation screens were performed in accordance with the genome-wide screens described in Example 1 and Example 2, respectively, with the exception that an additional MYCN-amplified neuroblastoma cell line (SK-N-DZ) was added to each screen.
(§3) Furthermore, five additional non-active miRNAs discovered to have no measureable effect across all treatment groups of the genome-wide screen (‘non-lethal’ miRNAs) were included as negative controls.

[3] = test system: KELLY cells; assay: Secondary validation screen of lethal miRNAs, cell viability; conditions: miRNA mimic alone
Protocol: as §1, §2, §3

[4] = test system: SHEP cells; assay: as above; conditions: miRNA mimic alone
Protocol: as §1, §2, §3

[5] = test system: KELLY cells; assay: Primary functional miRNA mimic screen, CellTiter-Glo cell viability; conditions: miRNA mimic 25 nM alone, 144 hours post-transfection
Description: Breast cancer cell lines (MDA-MB-231, MDA-MB-468, SK-BR-3; BT474) and prostate cancer cell lines (PC3, DU145) were obtained from American Type Culture Collection (ATCC). Neuroblastoma cell lines (KELLY, SHEP) were received from Children's Cancer Institute (CCIA). The KELLY cells were selected as a MYCN amplified neuroblastoma cell line and the SHEP cells were selected as a MYCN wild-type neuroblastoma cell line. All breast and prostate cancer cell lines were cultivated in RPMI media supplemented with 10% FCS, HEPES, and insulin. […] Each of the cell lines were reverse transfected in 384-well plate format with 25 nM of a miRNA from the Dharmacon miRNA mimic or inhibitor libraries (version 16.0) using liquid-handling robot Calliper Sciclone ALH3000 according to the conditions described in Table 3. […] Luminescence measurements were taken on the Synergy H4 high-throughput multimode microplate reader. All screens were performed in duplicates. Raw viability was normalised to a nontargeting control (OTP) or mock wells, and death genes or controls inducing varying levels of death were used to monitor transfection efficiency and to define dynamic range in each screen (FIG. 1). To define screen hits, normalised viability scores were binned in the following manner: CV1 bin included candidates with viability >=0.8; […] Only LC candidates were defined as screen hits.

[6] = test system: RGS16 mRNA; assay: qPCR of target mRNA in KELLY cells transfected with miRNA mimic; conditions: 25 nM mimic, 96 h after transfection
Protocol: (§4) KELLY cells were transfected with let-7b-5p, miR-101-3p, and miR-202-3p mimics and real-time PCR performed to determine any changes in mRNA expression levels of HAND1, RGS16, RBFOX2, and ACVR2B. Briefly, KELLY cells were grown in 10% FCS/RPMI and transfected with 25 nM of let-7b-5p, miR-101-3p or miR-202-3p mimic using Dharmafect 1 (DF1) transfection reagent. 96 h after transfection, the cells were harvested and total RNA was extracted using miRneasy kit (Qiagen). RNA was then subjected to reverse transcription to generate cDNA. Quantification of gene expression was then performed using qPCR and Taqman probes and primers for HAND1, RGS 16, RBFOX2, and ACVR2B. The levels of gene expression for HAND1, RGS16, RBFOX2, and ACVR2B were normalised to the housekeeping genes B2M and GAPDH

[7] = test system: RBFOX2 mRNA; assay: as above; conditions: 25 nM mimic, 96 h after transfection
Protocol: as §4

| Substance | Primary screen Viability (% of control) SHEP [1] | Additional cell line Viability (% of control) SKNDZ [2] | Secondary screen Viability (% of control) KELLY [3] | Secondary screen Viability (% of control) SHEP [4] | Primary screen Viability (% of control) KELLY [5] | RGS16 mRNA levels [6] | RBFOX2 mRNA levels [7] |
| --- | --- | --- | --- | --- | --- | --- | --- |
| hsa-miR-101-3p (UACAGUACUGUGAUAACUGAA; chemistry not given here; listed as Homo sapiens) | 58 % of control | 72 % of control | 7 % of control | 69 % of control | 6 % of control | did not affect | did not affect |
| hsa-miR-634 (guide AACCAGCACCCCAACUUUGGAC; chemistry not given here; listed as Homo sapiens) | 8 % of control | 41 % of control | 13 % of control | 12 % of control | 7 % of control |  |  |
| hsa-miR-654-5p (guide UGGUGGGCCGCAGAACAUGUGC; chemistry not given here; listed as Homo sapiens) | 30 % of control | 28 % of control | 7 % of control | 45 % of control | 6 % of control |  |  |
| hsa-miR-876-3p (guide UGGUGGUUUACAAAGUAAUUCA; chemistry not given here; listed as Homo sapiens) | 94 % of control | 48 % of control | 6 % of control | 51 % of control | 6 % of control |  |  |
| hsa-miR-892b (guide CACUGGCUCCUUUCUGGGUAGA; chemistry not given here; listed as Homo sapiens) | 30 % of control | 54 % of control | 3 % of control | 34 % of control | 5 % of control |  |  |
| hsa-miR-1231 (GUGUCUGGGCGGACAGCUGC; chemistry not given here; listed as Homo sapiens) | 15 % of control | 98 % of control | 48 % of control | 46 % of control | 36 % of control |  |  |
| hsa-miR-1262 (AUGGGUGAAUUUGUAGAAGGAU; chemistry not given here; listed as Homo sapiens) | 31 % of control | 13 % of control | 8 % of control | 42 % of control | 8 % of control |  |  |
